Legend:
[1] = DPPH radical scavenging assay; assay type: biochemical; details: 517 nm
[2] = Superoxide scavenging assay; assay type: biochemical; details: 590 nm
[3] = tested on: Shigella flexneri; experiment: Agar disc diffusion antibacterial test; details: for Inhibition % / diameter of clear zone inhibition: E, (-) Shigella flexneri; for Inhibition %: (T–C)/T × 100; for diameter of clear zone inhibition: 20 µL of 100 µM on 6 mm disc, Control (DMSO) = 6 mm
[4] = molecular target: T1, BSA (Bos taurus, UniProt P02769); experiment: BSA binding by fluorescence emission titration; parameters: species or system bovine; details: for KSV (Stern-Volmer binding constant), BSA binding, Method–I / n (number of binding sites), BSA binding, Stern–Volmer Method–II / Kass (association binding constant), BSA binding, Stern–Volmer Method–II: BSA emission 350 nm; for Kq (bimolecular quenching rate constant), BSA binding, Stern–Volmer Method–I: Kq=KSV/τ0, τ0 = 10^−8 S, BSA emission 350 nm (λex 278 nm); for P (ratio of fluorescence quantum efficiency), BSA binding: intercept of F/F0 vs 1/[BSA]; for ΔGb°, BSA binding, Stern–Volmer Method–II: −RT ln Kass, T = 298 K
T1 construct: purchased Sigma Aldrich
T1 sequence (P02769 25-607): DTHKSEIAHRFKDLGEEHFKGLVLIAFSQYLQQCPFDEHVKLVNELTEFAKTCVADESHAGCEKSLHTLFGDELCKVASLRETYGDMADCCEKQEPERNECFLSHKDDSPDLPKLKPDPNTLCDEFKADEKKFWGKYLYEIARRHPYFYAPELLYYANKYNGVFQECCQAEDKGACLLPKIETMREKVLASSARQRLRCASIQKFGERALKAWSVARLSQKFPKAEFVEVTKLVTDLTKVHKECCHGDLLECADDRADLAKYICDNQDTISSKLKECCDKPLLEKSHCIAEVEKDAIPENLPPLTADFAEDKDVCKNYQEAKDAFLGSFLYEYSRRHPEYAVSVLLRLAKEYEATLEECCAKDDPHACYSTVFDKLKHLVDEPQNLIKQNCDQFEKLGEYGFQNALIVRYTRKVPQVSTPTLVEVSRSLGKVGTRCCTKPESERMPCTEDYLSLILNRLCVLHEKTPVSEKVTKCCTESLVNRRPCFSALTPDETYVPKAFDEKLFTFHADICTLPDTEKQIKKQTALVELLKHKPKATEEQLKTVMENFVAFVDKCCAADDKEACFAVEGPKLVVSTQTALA
Protocol: The DNA/BSA binding properties were acquired from the emission spectral titration with the supporting of the JASCO FP-6300 spectrofluorometer between the 200 and 800 nm regions. It is additional evidence for the complexes’ manner of DNA binding. While DNA (200 µM) was present or absent, we vigilantly monitored the intensity variations between 610 nm and 510 nm during the initial emission and excitation of EB [27]. Correspondingly, the emission titrations for BSA interaction with different concentrations between 2.5 μM and 25 μM for all samples were conducted in a Tris-HCl buffer solution (pH: 7.4) between the regions of 300 nm and 400 nm. […]
experiments were measured for BSA interaction in the range of 300 –400 nm, using a fluorescence cuvette with a path length of 1 cm. all test compounds have no substantial fluorescence emission rate in any of the above ranges in Tris-HCl buffer solution (pH=7.2).
Therefore, BSA interaction tests are not impaired in the interaction with the complexes [ 28].
In the experiment, the emission of BSA solution (25 µM) in 50 mM Tris –HCl /1 mM NaCl […]
While raising the test compound ’s concentration (0-25 µM), the intensity of the BSA decreases due to static quenching in the generation of ground state BSA – complex adduct. The observations of the BSA molecule at the excitation wavelength (278 nm) and at the emission wavelength (350 nm) that both of […]
Fcorr = Fobs × e[(Aex× dex) + (Aem× dem)]/ 2 = Fobs × e(Aex + Aem)/ 2 (S12) Fcorr and F obs are represented as the IFE-corrected emission and observed (uncorrected) emission intensities, respectively. d ex and d em are denoted as the cuvette path lengths in the […]
excitation and emission directions, respectively. Also, the alteration in absorbance (OD) at the excitation and fluorescence wavelengths, respectively, is sometimes referred to as A ex and […]
F = 1+KSV [Q] = 1+ Kq τ0 (S13)
Where [Q] is represented as the sample concentration (quencher), the emission intensities F 0 and F are those in the […] of the quencher, respectively.
F ) = log Kass + nlog [Q] (S14)
KEB[EB] = Kapp[compound] (S15)
∆F = (F 0–F), Equation (16) was utilized to examine the Lineweaver –Burk binding constant (KLB) from the linear regression plot of 1/(F0–F) vs 1/[Q]. […]
γ =(F0–F)/F0, CF is denoted as the concentration of sample alone, the linear regression plot of (γ/CF) vs γ was employed to support equation (17), which was used to determine the values of KSA and n, respectively.
2.2.6. FRET calculation by Förster’s theory
Calculating FRET (Fluorescence Resonance Energy Transfer) is a crucial approach in determining the critical distance (r) between donor (BSA) and acceptor (test compound) molecules, in which the binding affinity between the BSA-complex systems could be evalued according to Förster’s theory. The overlap of the emission spectrum of the donor (BSA) and the absorption spectrum of the acceptor (compound) describes that the acceptor (compound) group may get excited as a result of the excited donor's (BSA) energy being lost to the ground

[5] = tested on: CT-DNA; experiment: DNA binding by cyclic voltammetry; parameters: species or system calf; details: for Kb, Method II: Cp/Cf vs [DNA]; for Kb, Method III: Ip^2 vs (Ipo^2 − Ip^2)/[DNA]; for Kred/Koxi (Calcd): Nernst equation, Ant.log nEs°/0.0591, n = 1; for Kred/Koxi Found (I): from method I binding constants; for Kb, Method I, Oxi / Kb, Method I, Red: log (1/[DNA]) vs log (I/I0 − I); for Kb, Method I, Oxi: oxidation; for Kb, Method I, Red: reduction; for S (binding site size): method II
Protocol: The CV experiment was carried out for free substances at 10 µM at room temperature with a 5 mM Tris-HCl/50 mM NaCl buffer solution (pH: 7.4). While CT-DNA increases (0–10 µM) in each sample solution, shifts in potential, including variations in the anodic and cathodic peak currents, have been monitored.
2.2.7. Evaluation of DNA interaction properties using cyclic voltammetry technique The electrochemical analysis is a critical entity to examine the electron transfer reactions of the test compounds. With a scan rate of 0.1V, the CHI 620C electrochemical analyzer was utilized with a three-electrode system consisting of glassy carbon as the working electrode, Ag/AgCl as the reference electrode, and platinum wire as the counter/auxiliary electrode to monitor changes in peak current and peak potential during the interaction between test compound and DNA. The changes in peak current and peak potential further afford data on the binding constant as well as the mode of interaction for test compound –DNA adducts. In single-compartment cells of 5 –15 mL, electrochemical titrations for all test compounds were executed at 25 °C in the absence and presence of DNA. The solutions were then deoxygenated by passing them through N 2 before measurements were made. The electrochemical analysis for free compounds was executed at a 10 µM concentration in the presence of 5mM Tr is-HCl /50 mM NaCl (pH = 7.2) buffer solution. Changes in the anodic […]
and cathodic peak currents, as well as potential shifts, have been observed as CT-DNA concentrations in each solution of complexes rise from 1 to 10 µM [32].
I ) = log [DNA] + log Kb (S24)
The peak currents of the chemical in the absence and presence of deoxyribonucleic acid are designated as I0 and I, respectively.
Kb values for all samples were estimated through the linear regression plot of log (1/[DNA]) versus log (I/I0–I) by method-I. Equation (S26) was attained from equation (S25).
Cf and Cb are represented as the free substance concentration and DNA-interacted compound, respectively, and equation (S28) was obtained by comparing equations (S26) and (S27).
Ipa is denoted as the anodic peak current in amperes, n is represented as the number of electrons participating in the redox (M 1+/M2+) process (n=1), The activation coefficient (charge transfer coefficient) is shown by the symbol α. and the value is equal to 0.5, which is a typically supported approximation for numerous quasi-reversible systems.
2.3. DFT and molecular modelling studies
DFT calculations were performed to comprehend the electronic structure and reactivity of ligand (HL) and metal complexes ( 1b-2b) using the Gaussian 09 package [ 34]. Geometries were fully optimized both in the gas phase and methanol solution using B3LYP, and comparatively later with the CAM-B3LYP and M06-2X functionals. For each complex, the […]

| SMILES | % Inhibition, DPPH ([1]; 40 µM) [%] | % Inhibition, DPPH ([1]; 80 µM) [%] | % Inhibition, DPPH ([1]; 120 µM) [%] | % Inhibition, DPPH ([1]; 160 µM) [%] | % Inhibition, DPPH ([1]; 200 µM) [%] | % Inhibition, DPPH ([1]; 240 µM) [%] | % Inhibition, superoxide ([2]; 40 µM) [%] | % Inhibition, superoxide ([2]; 80 µM) [%] | % Inhibition, superoxide ([2]; 120 µM) [%] | % Inhibition, superoxide ([2]; 160 µM) [%] | % Inhibition, superoxide ([2]; 200 µM) [%] | % Inhibition, superoxide ([2]; 240 µM) [%] | Inhibition % [3] [%] | KSV (Stern-Volmer binding constant), BSA binding, Method–I [4] [M⁻¹] | n (number of binding sites), BSA binding, Stern–Volmer Method–II [4] | Kq (bimolecular quenching rate constant), BSA binding, Stern–Volmer Method–I [4] [M⁻¹ s⁻¹] | P (ratio of fluorescence quantum efficiency), BSA binding [4] | ΔGb°, BSA binding, Stern–Volmer Method–II [4] | Kb, Method II [5] [M⁻¹] | Kb, Method III [5] [M⁻¹] | further results |
| --- | --- | --- | --- | --- | --- | --- | --- | --- | --- | --- | --- | --- | --- | --- | --- | --- | --- | --- | --- | --- | --- |
| Oc1ccccc1N=Cc1ccc(N2CCOCC2)cc1 [(HL), 2-(4-morpholinobenzylideneamino)phenol] | 09.45 | 15.21 | 26.36 | 34.56 | 39.41 | 52.45 | 05.23 | 10.74 | 18.85 | 33.55 | 40.91 | 50.42 | 57 | 26390 | 0.958 | 2.639e+12 | 0.225 | –23.86 kJM^−1 | 2477 | 4837 | zone of inhibition at 100 µM ([3]; Shigella flexneri, read-out: diameter of clear zone inhibition): 14 mm; Kred/Koxi (Calcd) [5]: 2.0964; Kred/Koxi Found (I) [5]: 1.1125; Kb, Method I, Oxi [5]: 5280 M⁻¹; Kb, Method I, Red [5]: 5874 M⁻¹; S (binding site size) [5]: 0.446 bp |
| [Cu+2].[O-]c1ccccc1N=Cc1ccc(N2CCOCC2)cc1.[O-]c1ccccc1N=Cc1ccc(N2CCOCC2)cc1.c1cnc2c(c1)ccc1cccnc12 [(1b), [Cu^II(L)2(phen)]] | 18.11 | 30.88 | 36.82 | 52.42 | 58.65 | 70.12 | 08.45 | 16.53 | 32.18 | 48.09 | 60.93 | 68.21 | 65 | 95640 | 1.021 | 9.564e+12 | 0.322 | –27.71 kJM^−1 | 35514 | 21695 | IC50 [1]: 160 µM; IC50 [2]: 200 µM; diameter of clear zone inhibition [3]: 17 mm; Kass (association binding constant), BSA binding, Stern–Volmer Method–II [4]: 71990 M⁻¹; Kred/Koxi (Calcd) [5]: 3.2434; Kred/Koxi Found (I) [5]: 1.2053; Kb, Method I, Oxi [5]: 17320 M⁻¹; Kb, Method I, Red [5]: 20878 M⁻¹; S (binding site size) [5]: 0.267 bp |
| [O-]c1ccccc1N=Cc1ccc(N2CCOCC2)cc1.[O-]c1ccccc1N=Cc1ccc(N2CCOCC2)cc1.[Zn+2].c1cnc2c(c1)ccc1cccnc12 [(2b), [Zn^II(L)2(phen)]] | 12.82 | 24.88 | 30.89 | 40.27 | 50.12 | 60.66 | 06.70 | 12.58 | 24.23 | 40.35 | 52.23 | 60.02 | 57 | 79350 | 1.009 | 7.935e+12 | 0.285 | –27.25 kJM^−1 | 32242 | 18300 | IC50 [1]: 200 µM; diameter of clear zone inhibition [3]: 14 mm; Kass (association binding constant), BSA binding, Stern–Volmer Method–II [4]: 59840 M⁻¹; Kred/Koxi (Calcd) [5]: 3.7609; Kred/Koxi Found (I) [5]: 1.1168; Kb, Method I, Oxi [5]: 14610 M⁻¹; Kb, Method I, Red [5]: 16317 M⁻¹; S (binding site size) [5]: 0.248 bp |
